“Also recorded” adds a separate entry of the source.
Columns and labels:
human TLR9 = molecular target: T1, human TLR9 (Homo sapiens, UniProt Q9NR96); assay: IL-8 production by TLR9-transfected HEK293 cells; type: cell-based
T1 construct: expressed in transfected cells; host or cells: HEK293
T1 sequence (Q9NR96 26-1032): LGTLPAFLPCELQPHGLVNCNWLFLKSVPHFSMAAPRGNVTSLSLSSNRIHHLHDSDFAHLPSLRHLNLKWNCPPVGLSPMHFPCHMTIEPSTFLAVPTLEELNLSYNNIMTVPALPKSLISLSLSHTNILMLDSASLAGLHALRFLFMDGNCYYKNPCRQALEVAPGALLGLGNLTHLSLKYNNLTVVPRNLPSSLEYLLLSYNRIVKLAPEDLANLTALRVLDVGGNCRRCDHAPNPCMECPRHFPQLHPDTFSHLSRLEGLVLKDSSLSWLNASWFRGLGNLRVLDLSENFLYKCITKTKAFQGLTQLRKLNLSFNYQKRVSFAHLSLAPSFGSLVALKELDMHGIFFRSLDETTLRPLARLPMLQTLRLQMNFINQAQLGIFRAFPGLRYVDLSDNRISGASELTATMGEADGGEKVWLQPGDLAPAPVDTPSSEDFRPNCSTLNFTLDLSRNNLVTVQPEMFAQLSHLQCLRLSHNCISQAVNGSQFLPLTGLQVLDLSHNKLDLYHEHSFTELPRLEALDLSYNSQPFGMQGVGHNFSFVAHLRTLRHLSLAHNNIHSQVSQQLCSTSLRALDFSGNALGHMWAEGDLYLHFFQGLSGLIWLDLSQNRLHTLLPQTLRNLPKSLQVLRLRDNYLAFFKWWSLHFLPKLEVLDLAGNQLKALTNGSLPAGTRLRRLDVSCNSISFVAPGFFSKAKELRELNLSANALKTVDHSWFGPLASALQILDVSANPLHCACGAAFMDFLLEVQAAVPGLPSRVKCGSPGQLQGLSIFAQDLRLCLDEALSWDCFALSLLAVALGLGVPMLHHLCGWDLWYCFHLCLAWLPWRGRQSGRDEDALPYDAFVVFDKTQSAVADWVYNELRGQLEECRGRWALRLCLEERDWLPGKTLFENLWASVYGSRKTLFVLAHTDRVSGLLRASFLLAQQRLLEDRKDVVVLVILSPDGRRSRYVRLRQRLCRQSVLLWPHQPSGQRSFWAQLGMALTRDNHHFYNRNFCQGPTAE
Description: The human embryonic kidney cell line HEK293, wild type or stably transfected with human TLR2, TLR9 and TLR4/CD1427 were cultured in low glucose Dulbecco's modified Eagle's medium supplemented with 10% FCS, HEPES ([…]), L-glutamine ([…]), and gentamycin (50 microgram/ml). Transfectants were additionally supplemented with puromycin (100 microgram/ml). For stimulation experiments, cells were cultured at a density of 3 to 5×10^5 cells/wells in 12-well tissue culture plates overnight. Cells were washed and stimulated with 100 ng/ml TA1 either alone or together with TLR ligands for 5 h before the assessment of IL-8 production in the supernatants.
The levels of TNF-alpha, IL-10, IL-12 p70, IFN-alpha and IL-8 in culture supernatants were determined by Kit ELISAs. The detection limits (pg/ml) of the assays were <3 (human) and <32 (murine) for TNF-alpha, <12 (murine) and <5 (human) for IL-10, <16 (murine) and <3 (human) for IL-12 p70 and <25 (human) IL-8. For human IFN-alpha <3 ng/ml. For enumeration of cytokine-producing cells, an ELISPOT assay was used on purified CD4^+ T cells and DCs from lungs.

[1] = test system: human MDC and PDC subsets; assay: Activation of human MDC and PDC subsets: phagocytosis, phenotype, cytokine release; type: cell-based
Description: Blood CD 11c^+ myeloid DCs (MDCs) were generated from CD 14^+ mononuclear cells by magnetic cell sorting and cultured for 5 days in Iscove's modified medium, containing 10% fetal bovine serum, 50 micromolar 2-mercaptoethanol, sodium pyruvate (1 mM), 2 mM L-glutamine, HEPES (10 mM), and 50 micrograms/ml gentamycin in the presence of 50 ng/ml rHuman GM-CSF and 200 U/ml rHuman IL-4. Immature MDCs were cultured for 24 hours with 1000 ng/ml trimeric human CD40 ligand-leucine-zipper fusion protein to obtain mature DCs. CD 123^+ plasmacytoid DCs (PDCs) were isolated using the BDCA-4 isolation kit. Purity of CD 123^+ cells was >96%. For mature PDCs, immature DCs were cultured with the trimeric human CD40 ligand as above and 10 ng/ml IL-3. […] The expression of HLA Class II, CD80 and CD86 was high in both immature and mature DCs. Murine lung CD 11c^+ DCs (between 5 to 7% positive for CD8alpha and between 30 to 35% positive for Gr-1) were isolated by magnetic cell sorting. For phagocytosis, DCs were pre-exposed to 100 ng/ml TA1 for 60 minutes and subsequently incubated at 37° C. with Aspergillus conidia for an additional 60 minutes. The percentage of internalization was calculated and photographs were taken. In assessing functional maturation and cytokine determination, purified DCs were resuspended in Iscove's medium (with no serum but with polymixin B, to avoid non-specific activation by serum components and endotoxin) and pulsed with 100 ng/ml TA1 for 24 hours either alone or together with TLR ligands or unopsonized Aspergillus conidia. Cell surface phenotype was assessed by reacting samples with FITC- or PE-conjugated rat anti-mouse antibodies. Unrelated hisotype matched antibodies were used as control. The levels of TNF-alpha, IL-10, IL-12 p70, IFN-alpha and IL-8 in culture supernatants were determined by Kit ELISAs. The detection limits (pg/ml) of the assays were <3 (human) and <32 (murine) for TNF-alpha, <12 (murine) and <5 (human) for IL-10, <16 (murine) and <3 (human) for IL-12 p70 and <25 (human) IL-8. For human IFN-alpha <3 ng/ml. For enumeration of cytokine-producing cells, an ELISPOT assay was used on purified CD4^+ T cells and DCs from lungs.

Ac-Ser-Asp-Ala-Ala-Val-Asp-Thr-Ser-Ser-Glu-Ile-Thr-Thr-Lys-Asp-Leu-Lys-Glu-Lys-Lys-Glu-Val-Glu-Glu-Ala-Glu-Asn-O (Ac-SDAAVDTSSEITTKDLKEKKEVEEAEN-OH) [TA1, naturally occurring thymic peptide]
production of IL-8 (human TLR9; TA1 alone, 100 ng/ml, 5 h): directly activate; also recorded: significantly increased | production of IL-8 (human TLR9; in response to the TLR9 ligand CpG): significantly increased | activation of human MDC and PDC subsets ([1]; 100 ng/ml): activates | phagocytic activity of immature DCs ([1]; Aspergillus conidia, 100 ng/ml pre-exposure 60 minutes): increased | IFN-alpha production ([1]; PDCs, in response to the TLR9 ligand CpG): significantly potentiated | DC morphology ([1]; immature MDCs): more cytoplasmic projections | release of IL-12 p70 ([1]; immature MDCs, in response to conidia): significantly increase | release of IL-12 p70 ([1]; immature MDCs, in response to zymosan): significantly increase | release of IL-10 ([1]; immature PDCs, in response to conidia): significantly increase | HLA Class II antigens and costimulatory molecule expression ([1]; in response to conidia): up-regulate
